Test results taken from DBAASP.
≈ marks a conversion by molar mass, not a printed value. Where “and” joins values, the source holds several entries; their conditions need not be identical. Identical values can stand only once.

How the values were obtained:
Assay in all cases: ≥ marks a high value that may be exact or a test limit, other limits are often not marked, values filed in µg/mL are converted to µM
[1] = test system: Klebsiella pneumoniae ATCC 10031
[2] = test system: Salmonella enterica subsp. enterica serovar Typhimurium ATCC 14028
[3] = test system: Staphylococcus aureus ATCC 43300
Salmonella typhimurium = test system: Salmonella typhimurium
[4] = test system: Micrococcus luteus ATCC 10420
Listeria monocytogenes = test system: Listeria monocytogenes
[5] = test system: Staphylococcus aureus ATCC 29213
[6] = test system: Escherichia coli DH5alpha
[7] = test system: Escherichia coli ATCC 25404
Escherichia coli O157 = test system: Escherichia coli O157
[8] = test system: Micrococcus luteus ATCC 4698
[9] = test system: Staphylococcus epidermidis ATCC 9709
[10] = test system: Staphylococcus aureus ATCC 6538
[11] = test system: Staphylococcus epidermidis ATCC 12228
[12] = test system: Staphylococcus aureus ATCC 25923
[13] = test system: Enterococcus faecalis ATCC 29212
[14] = test system: Escherichia coli ATCC 25922
[15] = test system: Pseudomonas aeruginosa ATCC 15422
[16] = test system: Staphylococcus epidermidis KCTC 1917
[17] = test system: Candida albicans ATCC 10231
[18] = test system: Legionella pneumophila Lens
[19] = test system: Salmonella enterica subsp. enterica serovar Pullorum ATCC 7913
Escherichia coli 1005 = test system: Escherichia coli 1005
[20] = test system: Candida parapsilosis CGMCC 2.3989
Candida albicans = test system: Candida albicans
[21] = test system: Candida tropicalis CGMCC 2.1975
[22] = test system: Candida krusei CGMCC 2.1857
[23] = test system: Streptococcus pneumoniae ATCC 49619
[24] = test system: Streptococcus pyogenes ATCC 19615
Escherichia coli UB1005 = test system: Escherichia coli UB1005
[25] = test system: Pseudomonas aeruginosa K799
[26] = test system: Staphylococcus epidermidis C621
Corynebacterium xerosis = test system: Corynebacterium xerosis
Streptococcus mitis = test system: Streptococcus mitis
[27] = test system: Salmonella enterica subsp. enterica serovar Typhimurium ATCC 14028s

`CC(C)C[C@H](NC(=O)[C@H](CC(C)C)NC(=O)[C@H](CCCCN)NC(=O)[C@H](CO)NC(=O)[C@H](CC(C)C)NC(=O)[C@H](C)NC(=O)[C@H](CCCCN)NC(=O)[C@H](Cc1ccccc1)NC(=O)[C@H](CC(C)C)NC(=O)[C@H](C)NC(=O)CNC(=O)[C@H](CC(C)C)NC(=O)[C@@H](N)Cc1ccccc1)C(=O)O` [FLGALFKALSKLL] gave an MIC [1] of 17.6 µM (≈ 25 µg/mL), an MIC [2] greater than 70.4 µM and an MIC [3] of 4 µM (≈ 5.68 µg/mL). The MIC (Salmonella typhimurium) was no less than 64 µM, the MIC [4] was 2 µM (≈ 2.84 µg/mL) and the MIC (Listeria monocytogenes) was 2 µM (≈ 2.84 µg/mL). The MIC [5] was 4 µM and > 2 µM, the MIC [6] was no less than 98.5 µM and the MIC [7] was no less than 64 µM. For the same compound, the MIC (Escherichia coli O157) was no less than 64 µM, the MIC [8] was 2.11 µM (≈ 3 µg/mL) and the MIC [9] was 4 µM (≈ 5.68 µg/mL). The MIC [10] was 3.52 µM (≈ 5 µg/mL) and the MIC [11] was 6.33 µM (≈ 9 µg/mL).

Compound `CC(C)C[C@H](NC(=O)[C@H](CC(C)C)NC(=O)[C@H](Cc1cnc[nH]1)NC(=O)[C@H](CO)NC(=O)[C@H](CC(C)C)NC(=O)[C@H](C)NC(=O)[C@H](CCCCN)NC(=O)[C@H](Cc1c[nH]c2ccccc12)NC(=O)[C@H](CC(C)C)NC(=O)[C@H](C)NC(=O)CNC(=O)[C@H](CC(C)C)NC(=O)[C@@H](N)Cc1ccccc1)C(=O)O` [FLGALWKALSHLL] has an MIC (Salmonella typhimurium) of no less than 64 µM, an MIC [4] of 4 µM (≈ 5.88 µg/mL) and an MIC (Listeria monocytogenes) of 8 µM (≈ 11.8 µg/mL). The MIC [7] was no less than 64 µM, the MIC (Escherichia coli O157) was no less than 64 µM and the MIC [9] was 4 µM (≈ 5.88 µg/mL). It also gave an MIC [12] of 4 µM (≈ 5.88 µg/mL).

`CC(C)C[C@H](NC(=O)CNC(=O)[C@H](Cc1ccc(O)cc1)NC(=O)[C@H](Cc1cnc[nH]1)NC(=O)[C@@H]1CCCN1C(=O)[C@H](CC(C)C)NC(=O)[C@H](CCC(=O)O)NC(=O)[C@H](Cc1ccccc1)NC(=O)[C@H](C)NC(=O)[C@H](CO)NC(=O)[C@@H](N)CCCCN)C(=O)O` [KSAFELPHYGL] was tested, and the MIC [13] was 252 µM and 205 µM and 184 µM, the MIC [14] was greater than 500 µM and the MIC [15] was no less than 500 µM. For the same compound, the MIC [16] was no less than 250 µM and the MIC [17] was greater than 500 µM.

With `CC[C@H](C)[C@H](NC(=O)[C@H](CC(C)C)NC(=O)CNC(=O)[C@H](CCCCN)NC(=O)[C@@H](NC(=O)[C@@H](NC(=O)[C@H](CCC(=O)O)NC(=O)[C@@H](NC(=O)[C@H](Cc1ccccc1)NC(=O)[C@H](CCCCN)NC(=O)[C@H](C)NC(=O)[C@@H](NC(=O)[C@@H](NC(=O)[C@H](CC(=O)O)NC(=O)[C@H](C)NC(=O)[C@@H](N)CCSC)C(C)C)[C@@H](C)CC)C(C)C)[C@@H](C)CC)C(C)C)C(=O)N[C@@H](CC(=O)O)C(=O)N[C@@H](CCC(N)=O)C(=O)N[C@@H](Cc1ccccc1)C(=O)N[C@H](C(=O)N[C@@H](CCC(N)=O)C(=O)N[C@@H](CCCCN)C(=O)O)[C@@H](C)O` [MADVIAKFVEIVKGLIDQFTQK] the MIC [18] was 5.01 µM (≈ 12.5 µg/mL).

Compound `CC[C@H](C)[C@H](NC(=O)[C@H](Cc1ccccc1)NC(=O)[C@H](CC(=O)O)NC(=O)[C@@H](NC(=O)[C@H](C)NC(=O)[C@H](CCCCN)NC(=O)[C@H](CCCCN)NC(=O)[C@@H](NC(=O)[C@H](CC(C)C)NC(=O)[C@H](CC(=O)O)NC(=O)[C@@H](NC(=O)[C@@H](NC(=O)[C@H](Cc1ccccc1)NC(=O)[C@H](CCC(N)=O)NC(=O)[C@@H](N)CCSC)[C@@H](C)CC)[C@@H](C)O)[C@@H](C)CC)C(C)C)C(=O)N[C@@H](CCCCN)C(=O)NCC(=O)N[C@@H](CC(C)C)C(=O)N[C@@H](Cc1ccccc1)C(=O)NCC(=O)N[C@@H](CC(N)=O)C(=O)N[C@@H](CCCCN)C(=O)O` [MQFITDLIKKAVDFIKGLFGNK] has an MIC [18] of 1.23 µM (≈ 3.11 µg/mL).

`CC[C@H](C)[C@H](NC(=O)[C@H](CCCN=C(N)N)NC(=O)[C@H](CCCN=C(N)N)NC(=O)[C@@H](NC(=O)[C@@H](NC(=O)[C@@H](N)CCCN=C(N)N)[C@@H](C)CC)[C@@H](C)CC)C(=O)N[C@@H](CCCN=C(N)N)C(=O)N[C@@H](CCCN=C(N)N)C(=O)N[C@H](C(=O)N[C@H](C(=O)N[C@@H](CCCN=C(N)N)C(N)=O)[C@@H](C)CC)[C@@H](C)CC` [RIIRRIRRIIR] gave an MIC [19] of 16 µM (≈ 24.3 µg/mL), an MIC [2] of 16 µM (≈ 24.3 µg/mL) and an MIC [3] of 16 µM (≈ 24.3 µg/mL). The MIC (Escherichia coli 1005) was 8 µM (≈ 12.2 µg/mL), the MIC [5] was 64 µM (≈ 97.3 µg/mL) and the MIC [20] was no less than 64 µM. The MIC (Candida albicans) was 8 µM (≈ 12.2 µg/mL), the MIC [21] was 1 µM (≈ 1.52 µg/mL) and the MIC [22] was 4 µM (≈ 6.08 µg/mL). The MIC [14] was 16 µM and 32 µM, the MIC [12] was 32 µM (≈ 48.6 µg/mL) and the MIC [11] was 16 µM (≈ 24.3 µg/mL).

For `CC[C@H](C)[C@H](NC(=O)[C@@H](NC(=O)[C@@H](NC(=O)[C@@H](NC(=O)[C@@H]1CCCN1C(=O)[C@H](CS)NC(=O)[C@H](CCCN=C(N)N)NC(=O)[C@H](CCCN=C(N)N)NC(=O)[C@@H](N)CCCN=C(N)N)[C@@H](C)CC)C(C)C)C(C)C)C(=O)N[C@@H](CCCN=C(N)N)C(=O)N[C@H](C(=O)N[C@@H](CS)C(=O)N[C@@H](CCCN=C(N)N)C(=O)N[C@@H](CCCN=C(N)N)C(=O)O)C(C)C` [RRRCPIVVIRVCRR], the MIC [23] was no less than 35.9 µM, the MIC (Listeria monocytogenes) was 1.12 µM (≈ 2 µg/mL) and the MIC [13] was 35.9 µM (≈ 64 µg/mL). The MIC [24] was 8.98 µM (≈ 16 µg/mL), the MIC (Escherichia coli UB1005) was 4.49 µM (≈ 8 µg/mL) and the MIC [25] was no less than 35.9 µM. For the same compound, the MIC [26] was 8.98 µM (≈ 16 µg/mL), the MIC (Corynebacterium xerosis) was 0.281 µM (≈ 0.5 µg/mL) and the MIC (Streptococcus mitis) was 0.281 µM (≈ 0.5 µg/mL). It also gave an MIC [27] of no less than 35.9 µM and an MIC [12] greater than 35.9 µM.

`CC[C@H](C)[C@H](NC(=O)[C@@H](NC(=O)[C@@H](NC(=O)[C@@H]1CCCN1C(=O)[C@H](CS)NC(=O)[C@H](CC(C)C)NC(=O)[C@H](CCCN=C(N)N)NC(=O)[C@H](CCCN=C(N)N)NC(=O)[C@@H](N)CCCN=C(N)N)[C@@H](C)CC)C(C)C)C(=O)N[C@@H](CCCN=C(N)N)C(=O)N[C@H](C(=O)N[C@@H](CS)C(=O)N[C@@H](CCCN=C(N)N)C(=O)N[C@@H](CCCN=C(N)N)C(=O)O)C(C)C` [RRRLCPIVIRVCRR] gave an MIC [23] of no less than 35.6 µM, an MIC (Listeria monocytogenes) of 0.557 µM (≈ 1 µg/mL) and an MIC [13] of 17.8 µM (≈ 32 µg/mL). The MIC [24] was 4.45 µM (≈ 8 µg/mL), the MIC (Escherichia coli UB1005) was 2.23 µM (≈ 4 µg/mL) and the MIC [25] was 17.8 µM (≈ 32 µg/mL). For the same compound, the MIC [26] was 4.45 µM (≈ 8 µg/mL), the MIC (Corynebacterium xerosis) was 0.278 µM (≈ 0.5 µg/mL) and the MIC (Streptococcus mitis) was 0.557 µM (≈ 1 µg/mL). The MIC [27] was 17.8 µM (≈ 32 µg/mL) and the MIC [12] was greater than 35.6 µM.
